{"source": "patent US20120172369A1", "about": "(priority 2009, published 2012)", "molecular_target": "T1, human DGAT1 enzyme (Homo sapiens, UniProt O75907)", "T1 construct": "made in house; host or cells: Sf9 insect cells (microsomal membranes)", "T1 sequence (O75907 1-488)": "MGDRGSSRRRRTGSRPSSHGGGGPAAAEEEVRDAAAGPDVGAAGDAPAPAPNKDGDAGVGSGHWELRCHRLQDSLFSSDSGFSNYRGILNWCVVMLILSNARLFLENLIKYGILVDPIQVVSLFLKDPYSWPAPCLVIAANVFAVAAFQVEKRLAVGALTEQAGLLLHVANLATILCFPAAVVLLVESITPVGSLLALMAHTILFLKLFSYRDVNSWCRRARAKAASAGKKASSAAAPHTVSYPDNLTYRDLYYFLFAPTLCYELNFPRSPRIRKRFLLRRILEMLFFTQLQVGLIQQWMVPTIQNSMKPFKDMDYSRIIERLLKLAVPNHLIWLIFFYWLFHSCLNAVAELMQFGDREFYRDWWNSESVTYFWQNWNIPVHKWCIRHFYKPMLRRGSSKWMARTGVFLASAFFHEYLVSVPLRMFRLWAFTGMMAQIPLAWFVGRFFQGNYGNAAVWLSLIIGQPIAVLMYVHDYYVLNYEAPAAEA", "test": "in vitro DGAT1 inhibition assay (microsomes, [14C]-palmitoyl-CoA, SPA beads)", "type": "biochemical", "settings": "human DGAT1 expressed in Sf9 insect cells, microsomes; 2 hours at room temperature; read-out: IC50", "procedure": "The in vitro assay to identify DGAT1 inhibitors uses human DGAT1 enzyme expressed in Sf9 insect cells prepared as microsomes. The reaction was initiated by the addition of the combined substrates 1,2-dioleoyl-sn-glycerol and [^14C]-palmitoyl-Co A and incubated with test compounds and microsomal membranes for 2 hours at room temperature. The assay was stopped by adding 0.5 mg wheat germ agglutinin beads in assay buffer with 1% Brij-35 and 1% 3-cholamidopropyldimethyl-ammonio-1-propane sulfonate. Plates were sealed with TopSeal and incubated for 18 hours to allow the radioactive triglyceride product to come into proximity with the bead. Plates were read on a TopCount instrument.\nPercent inhibition was calculated as the percent of (test compound inhibition minus non-specific binding) relative to (total binding minus non-specific binding). IC50 values were determined by curve fitting the data to a Sigmoidal dose-response in GraphPad Prism utilizing the following equation:\nY=A+(B−A)/(1+10̂((Log IC50−X))),\nwhere A and B are the bottom and top of the curve (highest and lowest inhibition), respectively, and X is the logarithm of concentration.", "data": [{"compound": "ethyl 2-(4-(5-(5-(4-methoxyphenyl)-3-methylbenzofuran-2-carboxamido)pyridin-2-yl)piperazine-1-carboxamido)benzoate [Example 66]", "values": [{"measurement": "IC50", "result": 454, "unit": "nM"}]}, {"compound": "O=C(Nc1ccc(N2CCN(C(=O)Nc3ccccc3F)CC2)nc1)c1csc2ccccc12", "note": "[Example 10, 4-(5-(benzo[b]thiophene-3-carboxamido)pyridin-2-yl)-N-(2-fluorophenyl)piperazine-1-carboxamide]", "values": [{"measurement": "IC50", "result": 37, "unit": "nM"}]}, {"compound": "CCOC(=O)c1ccccc1NC(=O)N1CCN(c2ccc(NC(=O)c3oc4ccc(-c5ccccc5F)cc4c3C)cn2)CC1", "note": "[Example 21, ethyl 2-(4-(5-(5-(2-fluorophenyl)-3-methylbenzofuran-2-carboxamido)pyridin-2-yl)piperazine-1-carboxamido)benzoate]", "values": [{"measurement": "IC50", "result": 566, "unit": "nM"}]}, {"compound": "Cc1c(C(=O)Nc2ccc(N3CCC(OCc4cccc(C(=O)O)c4)CC3)nc2)oc2ccc(-c3ncco3)cc12", "note": "[Example 86, 3-((1-(5-(3-methyl-5-(oxazol-2-yl)benzofuran-2-carboxamido)pyridin-2-yl)piperidin-4-yloxy)methyl)benzoic acid]", "values": [{"measurement": "IC50", "result": 305, "unit": "nM"}]}, {"compound": "Cc1c(C(=O)Nc2ccc(N3CCC(OCc4cccc(C(=O)O)c4)CC3)nc2)oc2ccc(-c3ccccc3F)cc12", "note": "[Example 25, 3-((1-(5-(5-(2-fluorophenyl)-3-methylbenzofuran-2-carboxamido)pyridin-2-yl)piperidin-4-yloxy)methyl)benzoic acid]", "values": [{"measurement": "IC50", "result": 93, "unit": "nM"}]}, {"compound": "Cc1c(C(=O)Nc2ccc(N3CC[C@@H](COc4ccc(C(=O)O)cc4)C3)nc2)oc2ccc(-c3ccccc3)cc12", "note": "[Example 80, (R)-4-((1-(5-(3-methyl-5-phenylbenzofuran-2-carboxamido)pyridin-2-yl)pyrrolidin-3-yl)methoxy)benzoic acid]", "values": [{"measurement": "IC50", "result": 600, "unit": "nM"}]}, {"compound": "Cc1c(C(=O)Nc2ccc(N3CCN(C(=O)Nc4ccccc4F)CC3)nc2)sc2ccc(-c3ccc(F)cc3)cc12", "note": "[Example 55, N-(2-fluorophenyl)-4-(5-(5-(4-fluorophenyl)-3-methylbenzo[b]thiophene-2-carboxamido)pyridin-2-yl)piperazine-1-carboxamide]", "values": [{"measurement": "IC50", "result": 78, "unit": "nM"}]}, {"compound": "CCOC(=O)c1ccccc1NC(=O)N1CCN(c2ccc(NC(=O)c3oc4ccc(-c5ccc(F)cc5)cc4c3C)cn2)CC1", "note": "[Example 38, ethyl 2-(4-(5-(5-(4-fluorophenyl)-3-methylbenzofuran-2-carboxamido)pyridin-2-yl)piperazine-1-carboxamido)benzoate]", "values": [{"measurement": "IC50", "result": 1010, "unit": "nM"}]}, {"compound": "Cc1c(C(=O)Nc2ccc(N3CCN(C(=O)Nc4ccccc4C(=O)O)CC3)nc2)sc2ccc(-c3ccccc3)cc12", "note": "[Example 53, 2-(4-(5-(3-methyl-5-phenylbenzo[b]thiophene-2-carboxamido)pyridin-2-yl)piperazine-1-carboxamido)benzoic acid]", "values": [{"measurement": "IC50", "result": 27, "unit": "nM"}]}, {"compound": "Cc1c(C(=O)Nc2ccc(N3CCC(COc4cccc(C(=O)O)c4)CC3)nc2)oc2ccc(Cc3ccccc3)cc12", "note": "[Example 93, 3-((1-(5-(5-benzyl-3-methylbenzofuran-2-carboxamido)pyridin-2-yl)piperidin-4-yl)methoxy)benzoic acid]", "values": [{"measurement": "IC50", "result": 56, "unit": "nM"}]}, {"compound": "Cc1c(C(=O)Nc2ccc(N3CCN(C(=O)Nc4ccccc4F)CC3)nc2)oc2ccc(-c3cccc(F)c3)cc12", "note": "[Example 27, N-(2-fluorophenyl)-4-(5-(5-(3-fluorophenyl)-3-methylbenzofuran-2-carboxamido)pyridin-2-yl)piperazine-1-carboxamide]", "values": [{"measurement": "IC50", "result": 316, "unit": "nM"}]}, {"compound": "COc1ccccc1-c1ccc2oc(C(=O)Nc3ccc(N4CCC(COc5cccc(C(=O)O)c5)CC4)nc3)c(C)c2c1", "note": "[Example 71]", "values": [{"measurement": "IC50", "result": 171, "unit": "nM"}]}, {"compound": "Cc1c(C(=O)Nc2ccc(N3CCC(COc4cccc(C(=O)O)c4)CC3)nc2)oc2ccc(Oc3ccccc3)cc12", "note": "[Example 94, 3-((1-(5-(3-methyl-5-phenoxybenzofuran-2-carboxamido)pyridin-2-yl)piperidin-4-yl)methoxy)benzoic acid]", "values": [{"measurement": "IC50", "result": 71, "unit": "nM"}]}, {"compound": "Cc1c(C(=O)Nc2ccc(N3CCC(COc4cccc(C(=O)O)c4)CC3)nc2)oc2ccc(-c3ccc(F)cc3)cc12", "note": "[Example 39, 3-((1-(5-(5-(4-fluorophenyl)-3-methylbenzofuran-2-carboxamido)pyridin-2-yl)piperidin-4-yl)methoxy)benzoic acid]", "values": [{"measurement": "IC50", "result": 55, "unit": "nM"}]}, {"compound": "Cc1c(C(=O)Nc2ccc(N3CCC(OCc4cccc(C(=O)O)c4)CC3)nc2)sc2ccc(-c3ccccc3)cc12", "note": "[Example 51, 3-((1-(5-(3-methyl-5-phenylbenzo[b]thiophene-2-carboxamido)pyridin-2-yl)piperidin-4-yloxy)methyl)benzoic acid]", "values": [{"measurement": "IC50", "result": 28, "unit": "nM"}]}, {"compound": "Cc1c(C(=O)Nc2ccc(N3CCC(COc4cccc(C(=O)O)c4)CC3)nc2)oc2ccc(-c3ccccc3F)cc12", "note": "[Example 26, 3-((1-(5-(5-(2-fluorophenyl)-3-methylbenzofuran-2-carboxamido)pyridin-2-yl)piperidin-4-yl)methoxy)benzoic acid]", "values": [{"measurement": "IC50", "result": 59, "unit": "nM"}]}, {"compound": "CCOC(=O)c1ccccc1NC(=O)N1CCN(c2ccc(NC(=O)c3oc4ccc(-c5cccc(F)c5)cc4c3C)cn2)CC1", "note": "[Example 30, ethyl 2-(4-(5-(5-(3-fluorophenyl)-3-methylbenzofuran-2-carboxamido)pyridin-2-yl)piperazine-1-carboxamido)benzoate]", "values": [{"measurement": "IC50", "result": 1420, "unit": "nM"}]}, {"compound": "Cc1c(C(=O)Nc2ccc(N3CCC(OCc4cccc(C(=O)O)c4)CC3)nc2)oc2ccc(-c3cccc(F)c3)cc12", "note": "[Example 29, 3-((1-(5-(5-(3-fluorophenyl)-3-methylbenzofuran-2-carboxamido)pyridin-2-yl)piperidin-4-yloxy)methyl)benzoic acid]", "values": [{"measurement": "IC50", "result": 134, "unit": "nM"}]}, {"compound": "Cc1c(C(=O)Nc2ccc(N3CCC(COc4cccc(C(=O)O)c4)CC3)nc2)oc2ccc(-c3ccccc3)cc12", "note": "[Example 18, 3-((1-(5-(3-methyl-5-phenylbenzofuran-2-carboxamido)pyridin-2-yl)piperidin-4-yl)methoxy)benzoic acid]", "values": [{"measurement": "IC50", "result": 52, "unit": "nM"}]}, {"compound": "Cc1c(C(=O)Nc2ccc(N3CCN(C(=O)[C@H](O)c4ccccc4)CC3)nc2)oc2ccccc12", "note": "[Example 2, (R)—N-(6-(4-(2-hydroxy-2-phenylacetyl)piperazin-1-yl)pyridin-3-yl)-3-methylbenzofuran-2-carboxamide]", "values": [{"measurement": "IC50", "result": 625, "unit": "nM"}]}, {"compound": "Cc1ccc(C(=O)O)cc1COC1CCN(c2ccc(NC(=O)c3oc4ccc(-c5ccccc5)cc4c3C)cn2)CC1", "note": "[Example 78, 4-methyl-3-((1-(5-(3-methyl-5-phenylbenzofuran-2-carboxamido)pyridin-2-yl)piperidin-4-yloxy)methyl)benzoic acid]", "values": [{"measurement": "IC50", "result": 156, "unit": "nM"}]}, {"compound": "Cc1c(C(=O)Nc2ccc(-c3ccc(OC4CCC(C(=O)O)CC4)nc3)nc2)oc2ccc(-c3ccccc3)cc12", "note": "(stereo not shown) [Example 95, 4-(5-(3-methyl-5-phenylbenzofuran-2-carboxamido)-2,3′-bipyridin-6′-yloxy)cyclohexanecarboxylic acid]", "values": [{"measurement": "IC50", "result": 6, "unit": "nM"}]}, {"compound": "Cc1c(C(=O)Nc2ccc(N3CCN(C(=O)Nc4ccccc4C(=O)O)CC3)nc2)oc2ccc(-c3ccc(F)cc3)cc12", "note": "[Example 36, 2-(4-(5-(5-(4-fluorophenyl)-3-methylbenzofuran-2-carboxamido)pyridin-2-yl)piperazine-1-carboxamido)benzoic acid]", "values": [{"measurement": "IC50", "result": 90, "unit": "nM"}]}, {"compound": "Cc1c(C(=O)Nc2ccc(N3CCN(C(=O)Nc4ccccc4C(=O)O)CC3)nc2)oc2ccc(-c3cccc(F)c3)cc12", "note": "[Example 31, 2-(4-(5-(5-(3-fluorophenyl)-3-methylbenzofuran-2-carboxamido)pyridin-2-yl)piperazine-1-carboxamido)benzoic acid]", "values": [{"measurement": "IC50", "result": 84, "unit": "nM"}]}, {"compound": "CCOC(=O)c1ccccc1NC(=O)N1CCN(c2ccc(NC(=O)c3oc4ccc(-c5ccccc5OC)cc4c3C)cn2)CC1", "note": "[Example 68, ethyl 2-(4-(5-(5-(2-methoxyphenyl)-3-methylbenzofuran-2-carboxamido)pyridin-2-yl)piperazine-1-carboxamido)benzoate]", "values": [{"measurement": "IC50", "result": 2460, "unit": "nM"}]}, {"compound": "Cc1c(C(=O)Nc2ccc(N3CCN(C(=O)Nc4ccccc4F)CC3)nc2)sc2ccc(-c3ccccc3)cc12", "note": "[Example 46, N-(2-fluorophenyl)-4-(5-(3-methyl-5-phenylbenzo[b]thiophene-2-carboxamido)pyridin-2-yl)piperazine-1-carboxamide]", "values": [{"measurement": "IC50", "result": 84, "unit": "nM"}]}, {"compound": "Cc1c(C(=O)Nc2ccc(N3CCC(COc4cccc(C(=O)O)c4)CC3)nc2)oc2ccccc12", "note": "[Example 91, 3-((1-(5-(3-methylbenzofuran-2-carboxamido)pyridin-2-yl)piperidin-4-yl)methoxy)benzoic acid]", "values": [{"measurement": "IC50", "result": 84, "unit": "nM"}]}, {"compound": "COc1ccc(-c2ccc3oc(C(=O)Nc4ccc(N5CCC(OCc6cccc(C(=O)O)c6)CC5)nc4)c(C)c3c2)cc1", "note": "[Example 64, 3-((1-(5-(5-(4-methoxyphenyl)-3-methylbenzofuran-2-carboxamido)pyridin-2-yl)piperidin-4-yloxy)methyl)benzoic acid]", "values": [{"measurement": "IC50", "result": 65, "unit": "nM"}]}]}
